Measurements from patent US8030498B2, “Benzoylpyrazole compounds and herbicides containing them” (Ishihara Sangyo Kaisha, Ltd., priority 2005, dated 2011).

Legend:
barnyardgrass = assay: Test Example 2: soil application on the day after sowing, growth inhibition rate, barnyardgrass; assay type: in vivo, Echinochloa crus-galli L.; conditions: 250 g/ha active ingredient, observed on 19th to 24th day; for inhibition at 250 g/ha: Echinochloa crus-galli
Procedure, shortened: (§1)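 Pre-emergence soil treatment: one day post-sowing in upland soil, compound formulations at set active-ingredient rates were applied in 500 L/ha water. Visual rating of growth inhibition (0% untreated-equivalent to 100% complete kill) followed on days 19–24 after application.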

[1] = tested on: velvetleaf (Abutilon theophrasti MEDIC.); assay: Test Example 1: foliar treatment, growth inhibition rate, velvetleaf; assay type: in vivo; conditions: 31 g/ha active ingredient, visually observed 17th to 23rd day after application; for pest or weed control at 31 g/ha: Abutilon theophrasti
Procedure, shortened: (§2)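 Potted upland soil; compounds as wettable powders or emulsifiable concentrates diluted in water at 500 L/ha plus 0.1 vol % spreader, foliar-sprayed at defined leaf stages (rice 1.0–2.5, wheat 1.7–3.4, corn 2.0–3.5, greenfoxtail 1.0–3.0). Growth inhibition (0–100%) scored visually 17–23 days after application.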

rice = assay: Test Example 2: soil application on the day after sowing, growth inhibition rate, rice; assay type: in vivo, Oryza sativa L.; conditions: 250 g/ha active ingredient, observed on 19th to 24th day; for inhibition at 250 g/ha: Oryza sativa
Procedure, shortened: as §1

[2] = tested on: redroot pigweed (Amaranthus retroflexus L.); assay: Test Example 1: foliar treatment, growth inhibition rate, redroot pigweed; assay type: in vivo; conditions: 31 g/ha active ingredient, visually observed 17th to 23rd day after application
Procedure, shortened: (§3)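 Visual scoring of growth inhibition, 0% (untreated) to 100% (complete kill), on days 17–23 following post-emergence spray of formulated compound in water (500 L/ha, 0.1 vol % spreader); plants treated at set leaf stages, e.g. corn 2.0–3.5, wheat 1.7–3.4.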

[3] = tested on: greenfoxtail (Setaria viridis L.); assay: Test Example 1: foliar treatment, growth inhibition rate, greenfoxtail; assay type: in vivo; conditions: 31 g/ha active ingredient, visually observed 17th to 23rd day after application; for pest or weed control at 31 g/ha: Setaria viridis
Procedure, shortened: as §3

corn = assay: Test Example 2: soil application on the day after sowing, growth inhibition rate, corn; assay type: in vivo, Zea mays L.; conditions: 250 g/ha active ingredient, observed on 19th to 24th day; for inhibition at 250 g/ha: Zea mays
Procedure, shortened: as §1

wheat (Triticum spp.) = assay: Test Example 1: foliar treatment, growth inhibition rate, wheat; assay type: in vivo; conditions: 31 g/ha active ingredient, visually observed 17th to 23rd day after application; for pest or weed control at 31 g/ha: Triticum
Procedure, shortened: as §3

[4] = tested on: soybean (Glycine max Merr.); assay: Test Example 1: foliar treatment, growth inhibition rate, soybean; assay type: in vivo; conditions: 31 g/ha active ingredient, visually observed 17th to 23rd day after application
Procedure, shortened: as §3

greenfoxtail = assay: Test Example 2: soil application on the day after sowing, growth inhibition rate, greenfoxtail; assay type: in vivo, Setaria viridis L.; conditions: 250 g/ha active ingredient, observed on 19th to 24th day; for inhibition at 250 g/ha: Setaria viridis
Procedure, shortened: as §1

crabgrass = assay: Test Example 2: soil application on the day after sowing, growth inhibition rate, crabgrass; assay type: in vivo, Digitaria sanguinalis L.; conditions: 250 g/ha active ingredient, observed on 19th to 24th day; for inhibition at 250 g/ha: Digitaria sanguinalis
Procedure, shortened: as §1

[5] = tested on: crabgrass (Digitaria sanguinalis L.); assay: Test Example 1: foliar treatment, growth inhibition rate, crabgrass; assay type: in vivo; conditions: 31 g/ha active ingredient, visually observed 17th to 23rd day after application; for pest or weed control at 31 g/ha: Digitaria sanguinalis
Procedure, shortened: as §3

[6] = tested on: barnyardgrass (Echinochloa crus-galli L.); assay: Test Example 1: foliar treatment, growth inhibition rate, barnyardgrass; assay type: in vivo; conditions: 31 g/ha active ingredient, visually observed 17th to 23rd day after application; for pest or weed control at 31 g/ha: Echinochloa crus-galli
Procedure, shortened: as §2

rice (Oryza sativa L.) = assay: Test Example 1: foliar treatment, growth inhibition rate, rice; assay type: in vivo; conditions: 31 g/ha active ingredient, visually observed 17th to 23rd day after application; for pest or weed control at 31 g/ha: Oryza sativa
Procedure, shortened: as §3

corn (Zea mays L.) = assay: Test Example 1: foliar treatment, growth inhibition rate, corn; assay type: in vivo; conditions: 31 g/ha active ingredient, visually observed 17th to 23rd day after application; for pest or weed control at 31 g/ha: Zea mays
Procedure, shortened: as §3

wheat = assay: Test Example 2: soil application on the day after sowing, growth inhibition rate, wheat; assay type: in vivo, Triticum spp.; conditions: 250 g/ha active ingredient, observed on 19th to 24th day; for inhibition at 250 g/ha: Triticum aestivum
Procedure, shortened: as §1

soybean = assay: Test Example 2: soil application on the day after sowing, growth inhibition rate, soybean; assay type: in vivo, Glycine max Merr.; conditions: 250 g/ha active ingredient, observed on 19th to 24th day; for inhibition at 250 g/ha: Glycine max
Procedure, shortened: as §1

prickly sida = assay: Test Example 2: soil application on the day after sowing, growth inhibition rate, prickly sida; assay type: in vivo, Sida spinosa L.; conditions: 250 g/ha active ingredient, observed on 19th to 24th day; for inhibition at 250 g/ha: Sida spinosa
Procedure, shortened: as §1

redroot pigweed = assay: Test Example 2: soil application on the day after sowing, growth inhibition rate, redroot pigweed; assay type: in vivo, Amaranthus retroflexus L.; conditions: 250 g/ha active ingredient, observed on 19th to 24th day; for inhibition at 250 g/ha: Amaranthus retroflexus
Procedure, shortened: as §1

[7] = tested on: prickly sida (Sida spinosa L.); assay: Test Example 1: foliar treatment, growth inhibition rate, prickly sida; assay type: in vivo; conditions: 31 g/ha active ingredient, visually observed 17th to 23rd day after application
Procedure, shortened: as §3

velvetleaf = assay: Test Example 2: soil application on the day after sowing, growth inhibition rate, velvetleaf; assay type: in vivo, Abutilon theophrasti MEDIC.; conditions: 250 g/ha active ingredient, observed on 19th to 24th day; for inhibition at 250 g/ha: Abutilon theophrasti
Procedure, shortened: as §1

Compound | Growth inhibition rate (%) Barnyardgrass (barnyardgrass) [%] | Growth inhibition rate (%) Velvetleaf [1] [%] | Growth inhibition rate (%) Rice (rice) [%] | Growth inhibition rate (%) redroot pigweed [2] [%] | Growth inhibition rate (%) Greenfoxtail [3] [%] | Growth inhibition rate (%) Corn (corn) [%] | Growth inhibition rate (%) Wheat (wheat (Triticum spp.)) [%] | Growth inhibition rate (%) Soybean [4] [%] | Growth inhibition rate (%) Greenfoxtail (greenfoxtail) [%] | Growth inhibition rate (%) Crabgrass (crabgrass) [%] | Growth inhibition rate (%) Crabgrass [5] [%] | Growth inhibition rate (%) Barnyardgrass [6] [%] | Growth inhibition rate (%) Rice (rice (Oryza sativa L.)) [%] | Growth inhibition rate (%) Corn (corn (Zea mays L.)) [%] | Growth inhibition rate (%) Wheat (wheat) [%] | Growth inhibition rate (%) Soybean (soybean) [%] | Growth inhibition rate (%) Prickly sida (prickly sida) [%] | Growth inhibition rate (%) redroot pigweed (redroot pigweed) [%] | Growth inhibition rate (%) Prickly sida [7] [%] | Growth inhibition rate (%) Velvetleaf (velvetleaf) [%] | also measured
CCSC(=O)Oc1c(C(=O)c2ccc(S(C)(=O)=O)c(C(=O)OC)c2Cl)cnn1C [compound 27] | 100 | 80 | 90 | 95 | 100 | 0 | 10 | 90 | 98 | 95 | 80 | 100 | 80 | 40 | 10 | 0 | 100 | 100 | 70 | 95 | –
CCSC(=O)Oc1c(C(=O)c2ccc(S(C)(=O)=O)c(COC3CCOC3)c2C)cnn1C (stereo not shown) [compound 223] | 70 | 95 | 40 | 90 | 90 | 0 | 0 | 100 | 70 | 100 | 100 | 100 | 70 | 0 | 0 | 0 | 60 | 90 | 70 | 80 | –
CCSC(=O)Oc1c(C(=O)c2ccc(S(C)(=O)=O)c(OCCSC)c2C)cnn1C [compound 81] | 0 | 0 | 0 | 10 | 0 | 0 | 0 | 50 | 10 | 0 | 0 | 30 | 10 | 10 | 0 | 0 | 0 | 0 | 0 | 0 | –
CCSC(=O)Oc1c(C(=O)c2ccc(S(C)(=O)=O)c(OC(F)F)c2C)cnn1C [Compound No. 38, 5-(ethylthio)carbonyloxy-1-methylpyrazol-4-yl 3-(difluoromethoxy)-2-methyl-4-(methylsulfonyl)phenyl ketone] | – | – | – | 20 | – | – | – | 70 | – | – | – | – | – | – | – | – | – | – | 40 | – | inhibition at 250 g/ha (barnyardgrass): 90%; pest or weed control at 31 g/ha [1]: 60%; inhibition at 250 g/ha (rice): 60%; pest or weed control at 31 g/ha [3]: 30%; inhibition at 250 g/ha (corn): 0%; pest or weed control at 31 g/ha (wheat (Triticum spp.)): 0%; inhibition at 250 g/ha (greenfoxtail): 70%; inhibition at 250 g/ha (crabgrass): 95%; pest or weed control at 31 g/ha [5]: 0%; pest or weed control at 31 g/ha [6]: 80%; pest or weed control at 31 g/ha (rice (Oryza sativa L.)): 40%; pest or weed control at 31 g/ha (corn (Zea mays L.)): 0%; inhibition at 250 g/ha (wheat): 0%; inhibition at 250 g/ha (soybean): 0%; inhibition at 250 g/ha (prickly sida): 70%; inhibition at 250 g/ha (redroot pigweed): 90%; inhibition at 250 g/ha (velvetleaf): 20%
CCn1ncc(C(=O)c2ccc(S(C)(=O)=O)c(C(=O)OC)c2C)c1OC(=O)SC(C)C [compound 87] | 80 | 95 | 80 | 100 | 100 | 0 | 10 | 95 | 70 | 90 | 100 | 95 | 90 | 10 | 0 | 0 | 70 | 95 | 75 | 50 | –
CCn1ncc(C(=O)c2ccc(S(C)(=O)=O)c(C(=O)OC)c2C)c1OC(=O)SCc1ccccc1 [compound 93] | 95 | 80 | 90 | 98 | 95 | 0 | 0 | 80 | 100 | 90 | 80 | 95 | 70 | 30 | 0 | 0 | 75 | 100 | 70 | 65 | –
CCSC(=O)Oc1c(C(=O)c2ccc(S(C)(=O)=O)c(C(=O)OC)c2C)cnn1C [Compound No. 1, 5-(ethylthio)carbonyloxy-1-methylpyrazol-4-yl 3-(methoxycarbonyl)-2-methyl-4-(methylsulfonyl)phenyl ketone] | – | – | – | 100 | – | – | – | – | – | – | – | – | – | – | – | – | – | – | 70 | – | inhibition at 250 g/ha (barnyardgrass): 100%; pest or weed control at 31 g/ha [1]: 100%; inhibition at 250 g/ha (rice): 95%; pest or weed control at 31 g/ha [3]: 100%; inhibition at 250 g/ha (corn): 0%; pest or weed control at 31 g/ha (wheat (Triticum spp.)): 0%; inhibition at 250 g/ha (greenfoxtail): 100%; inhibition at 250 g/ha (crabgrass): 100%; pest or weed control at 31 g/ha [5]: 80%; pest or weed control at 31 g/ha [6]: 90%; pest or weed control at 31 g/ha (rice (Oryza sativa L.)): 80%; pest or weed control at 31 g/ha (corn (Zea mays L.)): 10%; inhibition at 250 g/ha (wheat): 10%; inhibition at 250 g/ha (soybean): 75%; inhibition at 250 g/ha (prickly sida): 60%; inhibition at 250 g/ha (redroot pigweed): 100%; inhibition at 250 g/ha (velvetleaf): 60%
